Assay results as given in patent publication US20130109693A1, “DERIVATIVES OF PYRIDO [3,2-D] PYRIMIDINE, METHODS FOR PREPARATION THEREOF AND THERAPEUTIC USES THEREOF” (UNIVERSITE D'ORLEANS, priority 2010, published 2013).

Key:
HCT 116 = assay: Cytotoxicity on human cells, HCT 116 (colon); assay type: cell-based; settings: exposed 24 h and 48 h, 0.1 to 25 μM
Procedure: (§1) […] Dosages on Human cells (Huh7, Caco, MDA-MB 231, HCT 116, PC3, NCl, Fibroblast)
(§2) Cytotoxicity: This method is based on an automated imaging analysis. 4.10^3 cells were cultivated on 96-well plates and thus left for 24 hours so that they may bind, be distributed and proliferate.
(§3) These cells were then exposed for 24 h and 48 h to increasing concentrations of the compounds of the invention, from 0.1 to 25 μM in a final volume of 80 μL of culture medium. The cells are then set with a 4% paraformaldehyde solution and the nuclei are colored with Hoechst 3342 and counted according to automated imaging quantification.
(§4) All the cell lines were cultivated in a DMEM or RPMI (Invitrogen) medium. All these media were completed with antibiotics (penicillin-streptomycin)(Lonza) and 10% by volume of foetal calf serum (Invitrogen). The cells were cultivated at 37° C. with 5% of CO2. The treatments with the molecules to be tested were carried out with increasing concentrations. […] The control experiments were also conducted by using suitable dilutions of DMSO (maximum 1% DMSO). Cell viability was determined by measuring the reduction of MTS as described in the article of Ribas J, Boix J. (2004). Cell differentiation caspase inhibition and macromolecular synthesis blockage but not BCL-2 or BCL-XL proteins protect SH-SY5Y cells from apoptosis triggered by two CDK inhibitory drugs. Exp. Cell Res., 295: 9-24.

PC3 = assay: Cytotoxicity on human cells, PC3 (prostate); assay type: cell-based; settings: PC-3, human cells, exposed 24 h and 48 h, 0.1 to 25 μM
Procedure: as §1, §2, §3, §4

DYRK1A = DYRK1A (Homo sapiens, UniProt Q13627); assay: DYRK1A kinase inhibition (Woodtide substrate, buffer A); assay type: biochemical; settings: 15 μM ATP, 30° C., recombinant GST fusion; read-out: IC50 Kinases DYRK1A
Procedure: (§5) The activities for inhibiting protein kinases of the compounds of the invention are tested according to the following general procedure:
(§6) Buffer A: 10 mM MgCl2, 1 mM EGTA, 1 mM DTT, 25 mM Tris-HCl pH 7.5 and 50 μg heparin/mL.
(§7) The kinase activities are dosed in buffers A or C, at 30° C., at a final concentration of ATP of 15 μM. The values of the blanks were subtracted and the activities are expressed as a % of the maximum activity, i.e. in the absence of inhibitors. The controls were carried out with suitable dilutions of DMSO.

Huh7 = assay: Cytotoxicity on human cells, Huh7 (liver); assay type: cell-based; settings: Huh-7, human cells, exposed 24 h and 48 h, 0.1 to 25 μM
Procedure: as §1, §2, §3, §4

Caco = assay: Cytotoxicity on human cells, Caco (colon); assay type: cell-based; settings: exposed 24 h and 48 h, 0.1 to 25 μM
Procedure: as §1, §2, §3, §4

CDK5 = molecular target: T1, CDK5 (Homo sapiens, UniProt Q00535); assay: CDK5 kinase inhibition (histone H1, [γ-33P] ATP, buffer C); assay type: biochemical; settings: 15 μM ATP, 30° C., recombinant; read-out: IC50 Kinases CDK5
T1 construct: made in house
Procedure: as §5
Buffer C: 60 mM β-glycerophosphate, 15 mM p-nitrophenyl-phosphate, 25 mM Mops (pH 7.2), 5 mM EGTA, 15 mM MgCl2, 1 mM DTT, 1 mM of sodium vanadate
as §7
CDK5 (humane, recombinant) was prepared as described earlier (Leclerc, S.; Garnier, M.; Hoessel, R.; Marko, D.; Bibb, J. A.; Snyder, G. L.; Greengard, P.; Biernat, J.; Mandelkow, E.-M.; Eisenbrand, G.; Meijer, L. Indirubins inhibit glycogen synthase kinase-3β and CDK5/p25, two kinases involved in abnormal tau phosphorylation in Alzheimer's disease—A property common to most CDK inhibitors? J. Biol. Chem. 2001, 276, 251-260; Bach S, Knockaert M, Reinhardt J, Lozach O, Schmitt S, Baratte B et al. (2005). Roscovitine targets, protein kinases and pyridoxal kinase. J. Biol Chem 280: 31208-31219). Its kinase activity was analyzed in the buffer C, with 1 mg of histone H1/mL, in the presence of 15 μM of [γ-^33P] ATP (3,000 Ci/mmol; 10 mCi/mL) in a final volume of 30 μl. After 30 mins of incubation at 30° C., 25 μl of supernatant aliquots were deposited on 2.5×3 cm pieces of phosphocellulose Whatman P81 paper, and after 20 seconds, the filters were washed five times (for at least 5 minutes every time) in a solution of 10 mL phosphoric acid/liter of water. The wet filters were counted in the presence of 1 mL of ACS scintillator fluid (Amersham).

MDA-MB 231 = assay: Cytotoxicity on human cells, MDA-MB 231 (breast); assay type: cell-based; settings: MDA-MB-231, human cells, exposed 24 h and 48 h, 0.1 to 25 μM
Procedure: as §1, §2, §3, §4

NCI = assay: Cytotoxicity on human cells, NCI (lung); assay type: cell-based; settings: exposed 24 h and 48 h, 0.1 to 25 μM
Procedure: as §1, §2, §3, §4

fibroblast = assay: Cytotoxicity on human cells, fibroblast; assay type: cell-based; settings: exposed 24 h and 48 h, 0.1 to 25 μM
Procedure: as §1, §2, §3, §4

GSK-3αβ = GSK-3αβ kinase inhibition (GS-1 substrate, buffer A); assay type: biochemical; settings: 15 μM ATP, 30° C., native, pig brain; read-out: IC50 Kinases GSK3
Procedure: as §5, §6, §7
GSK-3αβ (from pig brain, native) was assayed by using a specific substrate of GSK-3 (GS-1: […]pEDEEE)(Sp represents a phosphorylated serine) (Primot, A., Baratte, B., Gompel, M., Borgne, A., Liabeuf, S., Romette, J. L., Costantini, F. and Meijer, L., 2000. Purification of GSK-3 by affinity chromatography on immobilized axin. Protein Expr. & Purif. 20 (3), 394-404). GS-1 was synthesized by Millegen (Labège, France). Its kinase activity was analyzed in the buffer A, with 1 mg of histone H1/mL, in the presence of 15 μM of [γ-^33P] ATP (3,000 Ci/mmol; 10 mCi/mL) in a final volume of 30 μl. After 30 mins of incubation at 30° C., 25 μl of supernatant aliquots were deposited on 2.5×3 cm pieces of phosphocellulose Whatman P81papier, and after 20 seconds, the filters were washed five times (for at least 5 minutes every time) in a solution of 10 mL of phosphoric acid/liter of water. The wet filters were counted in the presence of 1 mL of ACS scintillator fluid (Amersham).

T1 sequence (Q00535 whole entry): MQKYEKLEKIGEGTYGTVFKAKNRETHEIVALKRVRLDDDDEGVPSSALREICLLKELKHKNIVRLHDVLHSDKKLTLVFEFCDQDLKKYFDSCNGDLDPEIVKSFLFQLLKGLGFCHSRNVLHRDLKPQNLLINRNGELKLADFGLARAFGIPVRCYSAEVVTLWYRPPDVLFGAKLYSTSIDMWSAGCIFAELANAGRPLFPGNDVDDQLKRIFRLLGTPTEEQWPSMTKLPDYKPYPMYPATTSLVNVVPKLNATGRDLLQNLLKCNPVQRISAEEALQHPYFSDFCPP
T1 sequence (Q15078 99-307 partner limits assumed): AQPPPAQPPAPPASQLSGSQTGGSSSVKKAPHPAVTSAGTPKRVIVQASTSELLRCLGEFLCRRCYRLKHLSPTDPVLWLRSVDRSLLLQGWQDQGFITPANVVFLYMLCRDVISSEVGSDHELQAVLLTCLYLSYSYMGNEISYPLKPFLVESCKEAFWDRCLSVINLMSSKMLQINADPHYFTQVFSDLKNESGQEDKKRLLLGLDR

| SMILES | IC50 (DYRK1A) [µM] | IC50 (CDK5) [µM] | melting point [°C] | IC50 (GSK-3αβ) [µM] | IC50 (HCT 116) [µM] | IC50 (PC3) [µM] | IC50 (Huh7) [µM] | IC50 (Caco) [µM] | IC50 (MDA-MB 231) [µM] | IC50 (NCI) [µM] | IC50 (fibroblast) [µM] |
| --- | --- | --- | --- | --- | --- | --- | --- | --- | --- | --- | --- |
| COc1ccc(-c2cnc3cnc(-c4ccc(O)cc4)nc3c2)cn1 [Compound 32, 2-(4-Hydroxyphenyl)-7-(3-(6-methoxy)-pyridinyl)-pyrido[3,2-d]pyrimidine] | > 10 | 1.2 | 246 to 248 | > 10 | > 25 | > 25 | > 25 | > 25 | 25 | 25 | 10 |
| Oc1ccc(-c2ncc3ncc(-c4ccc(C(F)(F)F)cc4)cc3n2)cc1 [Compound 25, 2-(4-Hydroxyphenyl)-7-(4-trifluoromethylphenyl)-pyrido[3,2-d]pyrimidine] | 24 | 0.97 | 203 to 204 | ≥ 100 | > 25 | > 25 | 25 | > 25 | > 25 | 20 | > 25 |
| Oc1ccc(-c2ncc3ncc(-c4cccc(O)c4)cc3n2)cc1 [Compound 23, 2-(4-Hydroxyphenyl)-7-(3-hydroxyphenyl)-pyrido[3,2-d]pyrimidine] | 2.4 | 0.11 | 256 to 257 | > 100 | 7 | 9 | 10 | 4 | > 25 | 20 | > 25 |
| Oc1ccc(-c2ncc3ncc(-c4ccccc4O)cc3n2)cc1 [Compound 24, 2-(4-Hydroxyphenyl)-7-(2-hydroxyphenyl)-pyrido[3,2-d]pyrimidine] | 2.7 | 0.09 | 278 to 279 | ≥ 100 | 20 | 20 | 25 | 20 | > 25 | > 25 | > 25 |
| Oc1ccc(-c2cnc3cnc(-c4ccc(O)cc4)nc3c2)cc1 [Compound 20, 2,7-Di-(4-hydroxyphenyl)-pyrido[3,2-d]pyrimidine] | 0.93 | 0.12 |  | 26 | 12 | 25 | 12 | 7 | > 25 | > 25 | > 25 |

Now from value to compound, other results behind:

| IC50 (DYRK1A) [µM] | IC50 (CDK5) [µM] | melting point [°C] | IC50 (GSK-3αβ) [µM] | SMILES | IC50 (HCT 116) [µM] | IC50 (PC3) [µM] | IC50 (Huh7) [µM] | IC50 (Caco) [µM] | IC50 (MDA-MB 231) [µM] | IC50 (NCI) [µM] | IC50 (fibroblast) [µM] |
| --- | --- | --- | --- | --- | --- | --- | --- | --- | --- | --- | --- |
| > 10 | 0.13 | > 268 | > 10 | Oc1ccc(-c2ncc3ncc(-c4ccncc4)cc3n2)cc1 [Compound 34, 2-(4-Hydroxyphenyl)-7-(4-pyridinyl)-pyrido[3,2-d]pyrimidine] | 10 | > 25 | > 25 | > 25 | > 25 | 5 | 15 |
| > 10 | > 10 | 125 to 126 | > 10 | CC(=O)c1ccc(Nc2cnc3c(NCc4ccccc4)nc(NCCO)nc3c2)cc1 [Compound 86, 4-Benzylamino-7-(4-acetylphenylamino)-2-(2-hydroxyethylamino)-pyrido[3,2-d]pyrimidine] | 1 | 3 | 2 | 3 | 15 | 2 | 5 |
| > 10 | > 10 | > 268 | > 10 | Cc1csc(Nc2cnc3cnc(-c4ccc(O)cc4)nc3c2)n1 [Compound 50, 2-(4-Hydroxyphenyl)-7-(2-(4-methyl)thiazolamino)-pyrido[3,2-d]pyrimidine] | > 25 | > 25 | 10 | > 25 | 25 | 25 | > 25 |
| > 10 | 0.65 | > 268 | > 10 | Oc1ccc(-c2ncc3ncc(-c4cccnc4)cc3n2)cc1 [Compound 33, 2-(4-Hydroxyphenyl)-7-(3-pyridinyl)-pyrido[3,2-d]pyrimidine] | > 25 | > 25 | > 25 | > 25 | > 25 | > 25 | > 25 |
